Assay results reported in PubChem BioAssay (NCI).
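A five-concentration, 48-hour dose response in 96-well plates underlies each endpoint, interpolated linearly between surrounding concentrations. The concentration for full growth arrest is given as TGI.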

Experiments:
Test in all cases: NCI-60 cell line screen, 48 h
786-0 renal = test system: 786-0 renal
ACHN renal = test system: ACHN renal
HCT-15 colon = test system: HCT-15 colon
HOP-62 NSCLC = test system: HOP-62 NSCLC
K-562 leukemia = test system: K-562 leukemia
KM12 colon = test system: KM12 colon
MDA-MB-231 breast = test system: MDA-MB-231 breast
MDA-MB-435 = test system: MDA-MB-435
NCI/ADR-RES ovarian = test system: NCI/ADR-RES ovarian
RXF 393 renal = test system: RXF 393 renal
SF-295 CNS = test system: SF-295 CNS
SR leukemia = test system: SR leukemia
T-47D breast = test system: T-47D breast
UACC-62 melanoma = test system: UACC-62 melanoma
MCF7 breast = test system: MCF7 breast

SMILES	TGI (786-0 renal) [µM]	TGI (ACHN renal) [µM]	TGI (HCT-15 colon) [µM]	TGI (HOP-62 NSCLC) [µM]	TGI (K-562 leukemia) [µM]	TGI (KM12 colon) [µM]	TGI (MDA-MB-231 breast) [µM]	TGI (MDA-MB-435) [µM]	TGI (NCI/ADR-RES ovarian) [µM]	TGI (RXF 393 renal) [µM]	TGI (SF-295 CNS) [µM]	TGI (SR leukemia) [µM]	TGI (T-47D breast) [µM]	TGI (UACC-62 melanoma) [µM]	TGI (MCF7 breast) [µM]
CC(C)(SCc1ccccc1)C(N)C(=O)O (stereo not drawn)	> 100	> 100	> 100	> 100	> 100	> 100	> 100	> 100	> 100	> 100	> 100	> 100	> 100	> 100	
COC[C@@H](N=CN1CCc2cc(OC)c(OC)cc2C1)C(C)(C)C	> 100	> 100	> 100	> 100	> 100	> 100				> 100	> 100	> 100		> 100	
CCOC(=O)C1=C(C)NC(C)=C(C(=O)OCC)C1c1ccc(C)cc1	45.8	> 100	> 100	> 100	> 100	> 100	84.3	> 100		75.5	> 100		> 100	> 100	47.3
CCN(CC)CC(=O)Nc1ccc2c(c1)C(=O)c1ccc(NC(=O)CN(CC)CC)cc1C2=O	47.2	73.3	> 100	74.1	67.8	70				29.7	> 100	41.7		> 100	
Cc1cc(=O)c2ccccc2n1CCCCCCCCCCn1c(C)cc(=O)c2ccccc21	30.4	> 100	> 100	> 100	17.9	29.4	> 100	29.7	> 100	72.3		34	> 100	34.9	
O=C1C=C2CC[C@H]3[C@@H]4CC[C@H](Oc5c6ccccc6nc6ccccc56)[C@H]4CC[C@@H]3[C@H]2CC1	> 100	> 100	> 100	> 100	> 100	> 100	> 100	> 100	> 100	91.5	> 100		> 100	> 100	
CN(C)/C=C/c1c2c(nc3ccccc13)C(=O)c1ccccc1C2=O	5.51	3.44	2.71	1.32	> 100	3.62	4.26	0.206	5.6	9.83	2.88	3.09	5.19	0.739	
CC(C)(O)CCc1ccc(O)c2c(=O)c3c(O)c4c(cc3oc12)O[C@H]1OC=C[C@@]41O	> 64	< 0.01	14.6	2.43	> 100	11.3	> 100	< 0.01	0.298	1.44	25.3	> 100		< 0.01	< 0.01
O=[N+]([O-])c1ccc(O)c(C=NCC2CCCN3CCCCC23)c1 (stereo not drawn)	> 100	89.1	> 100	> 100		> 100	> 100		> 100	59.7	> 100			78.8	> 100
Clc1cccc2c1OCC1C(c3ccccc3)=NN(c3ccccc3)C21 (stereo not drawn)	> 100	> 100		> 100	> 100	> 100				> 100	> 100				
CC1=C/C(=C2/N=C(N(C)C)SS2)C(C)=N1	> 100	> 100	> 100	> 100	> 100	> 100				> 100	> 100	> 100			
Cc1nc2ccccc2n1Cc1nnc2n1N=C(c1ccccc1)CS2	> 100	> 100	> 100	> 100		> 100	62.9	> 100	> 100		> 100		43.5	99.4	> 100
NC(=S)N/N=C1\CCCCC1C(O)(C(F)(F)Cl)C(F)(F)Cl (stereo not drawn)	> 10	> 10	> 10	> 10	> 10	> 10	> 10	> 10	> 10	> 10	> 10		> 10	> 10	> 10
COc1ccc2c(c1)CCN1C3=C(CCC3)C(=O)C[C@@H]21	> 100	> 100	> 100	> 100	> 100	> 100				> 100	> 100	> 100		> 100	
COc1ccc(/C=C2\CN(C)CC3C2=NN(c2ccccc2)C3c2ccc(OC)cc2)cc1 (stereo not drawn)	> 100	> 100	> 100	> 100	> 100	> 100		> 100	> 100	48.2	> 100		> 100	> 100	> 100
O[C@H]1[C@H](O)[C@@H](Cn2nnc(-c3ccccc3)c2-c2ccccc2)OCO[C@@H]1Cn1nnc(-c2ccccc2)c1-c1ccccc1	7.39	13.6	11.8	29	> 100	11.6	16.4	22.8	> 42.4	9.41	13		31.6	11.7	11.5
O=C1CCCC[C@H]1C(O)CC1CC(=O)N(c2ccccc2)C(=O)C1 (stereo partly drawn)	> 100	> 100	> 100	> 100	> 100	> 100	> 100	> 100	> 100	> 100	> 100	> 100		> 100	> 100
CCN(CC)CCNC(=O)c1nn(-c2ccc(Cl)cc2)c2c1CCc1cc(OC)ccc1-2	12	23.7	7.81	29.2	11.1	19.5	24.5	23.6		8.99	7.37	22	21	7.58	
